# Read-outs that look alike come from different tables or passages of the source.
# Key:
# [1] = test system: dermatophagoides pteronyssinus
# Protocol: Acarids (dermatophagoides pteronyssinus) originating from a laboratory strain raised on a substrate consisting of a 50/50 (mass/mass) mixture of wheatgerm and of brewer's yeast as flakes calibrated by sieving (fragments of less than 1 mm in size) were used. The temperature was between 23 and 25° C. and the relative humidity was maintained at 75% by placing in the presence of a saturated aqueous ammonium sulphate solution ([NH4)2SO4]); the strain was conserved in the dark.
# Pieces of standard cotton wool (150 g/m^2) were pre-infested with approximately 200 acarids of all stages.
# The pieces of cotton wool were then treated by sprinkling with an aqueous solution obtained by mixing 10, 30 or 50 g/l of sodium bicarbonate into water.
# Two rates of application of the solution were used: 30 and 50 ml/m^2.
# The sodium bicarbonate solution was sprayed and projected evenly and precisely over the cotton wool surfaces.
# The mortality of the acarids was noted after 15 min, 1 h, 2 h, 4 h and 24 h.
# A control batch of acarids was monitored in parallel so as to determine the natural mortality of the acarids subjected to spraying with the same volume of water.
# Each experimental series was repeated three times and the means of the mortality results obtained were taken.
# [2] = test system: dermatophagoides pteronyssinus; conditions: approximately 200 acarids deposited
# Protocol: The procedure was carried out as in example 1, except that the acaricidal aqueous solution was not applied by sprinkling, but the pieces of standard cotton wool (150 g/m^2) were immersed in baths of sodium bicarbonate solution.
# Three sodium bicarbonate concentrations were used: 10, 30 and 50 g/l.
# After drying of the textiles, approximately 200 acarids of all stages were deposited thereon and the acarid mortality was measured as a function of time.
# The acarid mortality was noted after 3 and 6 weeks.
# Each experimental series was also repeated three times and the means of the mortality results obtained were taken.
smiles,measurement,setting,value
"O=C([O-])O.[Na+] [Sodium bicarbonate, sodium bicarbonate]",% mortality,"[1]; 10 g bicarb/1, 30 ml/m^2 (0.3 g bicarb/m^2), contact time 15 minutes",0.0%
same,% mortality,"[1]; 10 g bicarb/1, 30 ml/m^2 (0.3 g bicarb/m^2), contact time 1 hour",0.0%
same,% mortality,"[1]; 10 g bicarb/1, 30 ml/m^2 (0.3 g bicarb/m^2), contact time 2 hours",0.2%
same,% mortality,"[1]; 10 g bicarb/1, 30 ml/m^2 (0.3 g bicarb/m^2), contact time 4 hours",0.5%
same,% mortality,"[1]; 10 g bicarb/1, 30 ml/m^2 (0.3 g bicarb/m^2), contact time 24 hours",18.5%
same,% mortality,"[1]; 10 g bicarb/1, 50 ml/m^2 (0.5 g bicarb/m^2), contact time 15 minutes",0.0%
same,% mortality,"[1]; 10 g bicarb/1, 50 ml/m^2 (0.5 g bicarb/m^2), contact time 1 hour",0.0%
same,% mortality,"[1]; 10 g bicarb/1, 50 ml/m^2 (0.5 g bicarb/m^2), contact time 2 hours",2.1%
same,% mortality,"[1]; 10 g bicarb/1, 50 ml/m^2 (0.5 g bicarb/m^2), contact time 4 hours",20.9%
same,% mortality,"[1]; 10 g bicarb/1, 50 ml/m^2 (0.5 g bicarb/m^2), contact time 24 hours",35.8%
same,% mortality,"[1]; 30 g bicarb/1, 30 ml/m^2 (0.9 g bicarb/m^2), contact time 15 minutes",0.0%
same,% mortality,"[1]; 30 g bicarb/1, 30 ml/m^2 (0.9 g bicarb/m^2), contact time 1 hour",0.0%
same,% mortality,"[1]; 30 g bicarb/1, 30 ml/m^2 (0.9 g bicarb/m^2), contact time 2 hours",0.0%
same,% mortality,"[1]; 30 g bicarb/1, 30 ml/m^2 (0.9 g bicarb/m^2), contact time 4 hours",0.7%
same,% mortality,"[1]; 30 g bicarb/1, 30 ml/m^2 (0.9 g bicarb/m^2), contact time 24 hours",19.7%
same,% mortality,"[1]; 30 g bicarb/1, 50 ml/m^2 (1.5 g bicarb/m^2), contact time 15 minutes",0.0%
same,% mortality,"[1]; 30 g bicarb/1, 50 ml/m^2 (1.5 g bicarb/m^2), contact time 1 hour",0.0%
same,% mortality,"[1]; 30 g bicarb/1, 50 ml/m^2 (1.5 g bicarb/m^2), contact time 2 hours",3.4%
same,% mortality,"[1]; 30 g bicarb/1, 50 ml/m^2 (1.5 g bicarb/m^2), contact time 4 hours",25.1%
same,% mortality,"[1]; 30 g bicarb/1, 50 ml/m^2 (1.5 g bicarb/m^2), contact time 24 hours",39.9%
same,% mortality,"[1]; 50 g bicarb/1, 30 ml/m^2 (1.5 g bicarb/m^2), contact time 15 minutes",0.0%
same,% mortality,"[1]; 50 g bicarb/1, 30 ml/m^2 (1.5 g bicarb/m^2), contact time 1 hour",0.0%
same,% mortality,"[1]; 50 g bicarb/1, 30 ml/m^2 (1.5 g bicarb/m^2), contact time 2 hours",0.0%
same,% mortality,"[1]; 50 g bicarb/1, 30 ml/m^2 (1.5 g bicarb/m^2), contact time 4 hours",5.2%
same,% mortality,"[1]; 50 g bicarb/1, 30 ml/m^2 (1.5 g bicarb/m^2), contact time 24 hours",88.0%
same,% mortality,"[1]; 50 g bicarb/1, 50 ml/m^2 (2.5 g bicarb/m^2), contact time 15 minutes",0.0%
same,% mortality,"[1]; 50 g bicarb/1, 50 ml/m^2 (2.5 g bicarb/m^2), contact time 1 hour",0.0%
same,% mortality,"[1]; 50 g bicarb/1, 50 ml/m^2 (2.5 g bicarb/m^2), contact time 2 hours",2.8%
same,% mortality,"[1]; 50 g bicarb/1, 50 ml/m^2 (2.5 g bicarb/m^2), contact time 4 hours",58.9%
same,% mortality,"[1]; 50 g bicarb/1, 50 ml/m^2 (2.5 g bicarb/m^2), contact time 24 hours",95.7%
same,Survivors,"[2]; immersion bath 10 g/l, after 3 weeks",212.8
same,Survivors,"[2]; immersion bath 10 g/l, after 6 weeks",818.3
same,Survivors,"[2]; immersion bath 30 g/l, after 3 weeks",153.5
same,Survivors,"[2]; immersion bath 30 g/l, after 6 weeks",245.0
same,Survivors,"[2]; immersion bath 50 g/l, after 3 weeks",53.5
same,Survivors,"[2]; immersion bath 50 g/l, after 6 weeks",143.0
